The values that follow are results of earlier work, collected in PMC8513935.

Data set [1] can be described thus: experimental, compiled by the authors from the literature (the ESI cites the sources).
A short description of data set [2]: log P octanol/water from commercial databases, averaged (the ESI). The conditions noted are these: Octanol (wet), 25 C.
Data set [3] is described as follows: derived by the authors as gas->solvent minus gas->water (a hypothetical dry solvent; the ESI), not a two-phase measurement.

The structures appear in SMILES notation.

In the case of `CCCc1ccccc1`, the log K of transfer, gas to solvent was 4.23 log10 K in data set [1] (Hexadecane, 25 C); 4.07 log10 K in data set [1] (Hexane, 25 C); 3.91 log10 K in data set [1] (Methanol, 25 C); 4.09 log10 K in data set [1] (Octan-1-ol, 25 C); 3.93 log10 K in data set [1] (Propan-2-ol, 25 C); 4.87 log10 K in data set [1] (Tetrahydrofuran, 25 C). For the same molecule, the log K of transfer, gas to solvent in data set [1] (Water, 25 C) was 0.39 log10 K. Further, the log K of transfer, water to solvent in data set [2] was 3.7 log10 K; in data set [3] (Hexadecane, 25 C), 3.84 log10 K; in data set [3] (Hexane, 25 C) it was 3.68 log10 K; in data set [3] (Methanol, 25 C), 3.52 log10 K; in data set [3] (Octan-1-ol(dry), 25 C) it was 3.7 log10 K; in data set [3] (Propan-2-ol, 25 C) it was 3.54 log10 K. For the same molecule, the log K of transfer, water to solvent in data set [3] (Tetrahydrofuran, 25 C) is 4.48 log10 K.
Turning to `C=CCC`, the log K of transfer, gas to solvent is 1.45 log10 K in data set [1] (2-Methylpropan-1-ol, 25 C); 1.49 log10 K in data set [1] (2-Methylpropan-2-ol, 25 C); 1.46 log10 K in data set [1] (3-Methylbutan-1-ol, 25 C); 1.47 log10 K in data set [1] (Butan-1-ol, 25 C); 1.46 log10 K in data set [1] (Butan-2-ol, 25 C); 1.83 log10 K in data set [1] (CCl4, 25 C). The log K of transfer, gas to solvent in data set [1] (Hexadecane, 25 C) is 1.53 log10 K; in data set [1] (Hexane, 25 C), 1.83 log10 K; in data set [1] (Pentan-1-ol, 25 C) it was 1.47 log10 K; in data set [1] (Propan-1-ol, 25 C), 1.47 log10 K; in data set [1] (Propan-2-ol, 25 C) it was 1.45 log10 K; in data set [1] (Water, 25 C), -1.01 log10 K. The log K of transfer, water to solvent was 2.4 log10 K in data set [2]; 2.46 log10 K in data set [3] (2-Methylpropan-1-ol, 25 C); 2.5 log10 K in data set [3] (2-Methylpropan-2-ol, 25 C); 2.47 log10 K in data set [3] (3-Methylbutan-1-ol, 25 C); 2.48 log10 K in data set [3] (Butan-1-ol, 25 C); 2.47 log10 K in data set [3] (Butan-2-ol, 25 C). Besides, the log K of transfer, water to solvent in data set [3] (CCl4, 25 C) was 2.84 log10 K; in data set [3] (Hexadecane, 25 C), 2.54 log10 K; in data set [3] (Hexane, 25 C), 2.83 log10 K; in data set [3] (Pentan-1-ol, 25 C), 2.48 log10 K; in data set [3] (Propan-1-ol, 25 C), 2.48 log10 K; in data set [3] (Propan-2-ol, 25 C), 2.46 log10 K.
Turning to `COC`, the log K of transfer, gas to solvent is 1.54 log10 K in data set [1] (2-Methylpropan-1-ol, 25 C); 1.65 log10 K in data set [1] (2-Methylpropan-2-ol, 25 C); 1.46 log10 K in data set [1] (3-Methylbutan-1-ol, 25 C); 1.5 log10 K in data set [1] (Butan-1-ol, 25 C); 1.54 log10 K in data set [1] (Butan-2-ol, 25 C); 1.6 log10 K in data set [1] (Chlorobenzene, 25 C). Also, the log K of transfer, gas to solvent in data set [1] (Hexadecane, 25 C) is 1.28 log10 K; in data set [1] (Hexane, 25 C), 1.31 log10 K; in data set [1] (Methanol, 25 C), 1.69 log10 K; in data set [1] (Octan-1-ol, 25 C), 1.37 log10 K; in data set [1] (Pentan-1-ol, 25 C), 1.45 log10 K; in data set [1] (Propan-2-ol, 25 C) it was 1.56 log10 K. Also, the log K of transfer, gas to solvent in data set [1] (Water, 25 C) was 1.4 log10 K. Also, the log K of transfer, water to solvent in data set [2] was 0.0999 log10 K; in data set [3] (2-Methylpropan-1-ol, 25 C), 0.14 log10 K; in data set [3] (2-Methylpropan-2-ol, 25 C), 0.25 log10 K; in data set [3] (3-Methylbutan-1-ol, 25 C), 0.057 log10 K; in data set [3] (Butan-1-ol, 25 C) it was 0.0999 log10 K; in data set [3] (Butan-2-ol, 25 C), 0.14 log10 K. Also, the log K of transfer, water to solvent in data set [3] (Chlorobenzene, 25 C) was 0.2 log10 K; in data set [3] (Hexadecane, 25 C), -0.115 log10 K; in data set [3] (Hexane, 25 C), -0.087 log10 K; in data set [3] (Methanol, 25 C), 0.29 log10 K; in data set [3] (Octan-1-ol(dry), 25 C), -0.03 log10 K; in data set [3] (Pentan-1-ol, 25 C), 0.05 log10 K. For the same molecule, in data set [3] (Propan-2-ol, 25 C), the log K of transfer, water to solvent is 0.16 log10 K.
On to `CCCOCCC`, for which the log K of transfer, gas to solvent in data set [1] (2-Methylpropan-1-ol, 25 C) is 3.06 log10 K; in data set [1] (2-Methylpropan-2-ol, 25 C), 3.03 log10 K; in data set [1] (Butan-1-ol, 25 C), 3.03 log10 K; in data set [1] (Butan-2-ol, 25 C), 3.04 log10 K; in data set [1] (Butanone, 25 C), 3.2 log10 K; in data set [1] (CCl4, 25 C) it was 3.54 log10 K. The log K of transfer, gas to solvent was 3.68 log10 K in data set [1] (Dichloromethane, 25 C); 2.95 log10 K in data set [1] (Hexadecane, 25 C); 3.02 log10 K in data set [1] (Hexan-1-ol, 25 C); 2.89 log10 K in data set [1] (Methanol, 25 C); 2.97 log10 K in data set [1] (Octan-1-ol, 25 C); 2.08 log10 K in data set [1] (Perfluoroalkane, 25 C). Also, the log K of transfer, gas to solvent in data set [1] (Propan-2-ol, 25 C) is 2.95 log10 K; in data set [1] (Water, 25 C), 0.9 log10 K. Also, the log K of transfer, water to solvent in data set [2] is 2.03 log10 K; in data set [3] (2-Methylpropan-1-ol, 25 C), 2.16 log10 K; in data set [3] (2-Methylpropan-2-ol, 25 C), 2.13 log10 K; in data set [3] (Butan-1-ol, 25 C), 2.13 log10 K; in data set [3] (Butan-2-ol, 25 C), 2.14 log10 K; in data set [3] (Butanone, 25 C), 2.3 log10 K. Further, the log K of transfer, water to solvent in data set [3] (CCl4, 25 C) was 2.64 log10 K; in data set [3] (Dichloromethane, 25 C) it was 2.78 log10 K; in data set [3] (Hexadecane, 25 C), 2.05 log10 K; in data set [3] (Hexan-1-ol, 25 C), 2.12 log10 K; in data set [3] (Methanol, 25 C) it was 1.99 log10 K; in data set [3] (Octan-1-ol(dry), 25 C), 2.07 log10 K. Besides, the log K of transfer, water to solvent in data set [3] (Perfluoroalkane, 25 C) was 1.18 log10 K; in data set [3] (Propan-2-ol, 25 C) it was 2.05 log10 K.
